Results taken from patent publication US20150080580A1, “THIOUREA DERIVATIVES AS a-CHYMOTRYPSIN INHIBITORS” (priority 2013, published 2015).

What was measured:
α-Chymotrypsin [1] = target: T1, α-Chymotrypsin (Bos taurus, UniProt P00766); assay: α-Chymotrypsin inhibition assay (SPpNA substrate, absorbance at 410 nm); assay type: biochemical, bovine; settings: α-chymotrypsin, substrate SPpNA 0.4 mM, pH 7.6, 30° C., n = 3
T1 construct: purchased Sigma-Aldrich (USA) C4129; host or cells: bovine pancreas
Protocol: (§1) α-Chymotrypsin (bovine pancreas, C4129) and N-succinyl-L-phenylalanine-p-nitroaniline (S2628) were purchased from Sigma-Aldrich (USA). Chymostatin (152845) from MP Biomedicals, LLC, USA, Tris(hydroxymethyl)aminomethane from Scharlau Chemie Barcelona, Spain and all other reagents were obtained from E. Merck and were of analytical grade. All other solvents and reagents were of analytical grade and used directly without purification.
This was performed in 50 mM Tris-HCl buffer pH 7.6 with 10 mM CaCl2. α-Chymotrypsin (12 units/mL prepared in 50 mM Tris-HCl buffer) with the different concentration of test compounds prepared in DMSO. It was then incubated at 30° C. for 25 min. The reaction was started by the addition of the substrate, N-succinyl-L-phenylalanine-p-nitroanilide (final concentration of 0.4 mM, prepared in the buffer as mentioned above). The change in absorbance due to released p-nitroaniline was continuously monitored at 410 nm (Choudhary et al., 2011). All the experiments were in a final volume of 200 μL in triplicate, and data was taken using a micro-plate reader (SpectraMax M2, Molecular Devices, Calif., USA).
The results were processed by using SoftMax Pro 4.8 then analyzed by MS Excel software. The % of inhibition based upon initial velocity and calculated as: […]
IC50 (Inhibition of enzymatic hydrolysis of the substrate SPpNA by 50%) value was calculated using EZ-Fit software (Perellela Scientific, Inc., Amherst, Mars, USA).

[2] = Cell proliferation inhibition (cytotoxicity) MTT assay for 3T3 cell line; assay type: cell-based, Mouse; settings: 3T3 mouse fibroblast cells; 3T3 mouse fibroblasts, MTT, 72 hrs, n = 3; read-out: 3T3 cell-line GI50 ± SEM
Protocol: (§2) It was evaluated by using the MTT (3-[4,5-dimethylthiazole-2-yl]-2,5-diphenyl-tetrazolium bromide) assay (Mosmann, 1983). The 3T3 cell-lines (Mouse Fibroblasts) were cultured in Dulbecco's Modified Eagle's Medium, which was later supplemented with 5% of bovine serum, 100 IU/mL of penicillin, and 100 μg/mL of streptomycin, in 5% CO2 incubator at 37° C. Exponentially growing cell, 1×10^4 cells/well incorporated into each well of 96-well plates. Then, fresh the medium containing different concentrations of compounds were loaded in each well after 24 hours. Again, after 72 hrs, fresh the medium containing 0.5 mg/mL MTT were loaded in each well, and incubated further for 4 hrs. Subsequently, the media containing MTT was replaced by 100 μL of DMSO for 15 min, and then the absorbance was taken at 570 nm.

3T3 cell line = assay: as above; assay type: cell-based, Mouse
Protocol: as §2

α-Chymotrypsin [3] = target: T1, α-Chymotrypsin; assay: α-Chymotrypsin inhibition kinetic study (Lineweaver-Burk, Dixon, Hanes-Woolf plots); assay type: biochemical, bovine; settings: for Type of inhibition: from Lineweaver-Burk, Dixon and Hanes-Woolf plots; for Ki: substrate SPpNA 0.4-3.2 mM, n = 3, read-out: Ki ± SEM
From the text: as §1
The change in concentration of the substrate/product (rate of reaction) was measured as optical density per minute (OD/min). This OD/min was obtained by incorporating different concentrations of compounds over substrate (SPpNA) concentrations between 0.4 mM and 3.2 mM in micro-plate reader. Reciprocal of OD/min against the reciprocal of the substrate concentration, defined as Lineweaver-Burk plot (and its secondary plot; slope vs compound concentration); the Dixon plot (and its secondary plot; slope vs reciprocal of compound concentration) and then Hanes-Woolf plot were plotted (Lineweaver et al., 1934; Dixon, 1953; Segel, 1993) Graphs were plotted using GraFit 4 (Erithacus Software Limited, Surrey, UK) and GraphPad Prism 5 (GraphPad Software, California, USA). The types of inhibition were determined by the graphical views of Dixon plots, Lineweaver-Burk plots and their secondary plots as well as Hanes-Woolf plot. The Ki values, obtained directly from the software, also were cross-checked and tallied in these graphs. Final concentration of DMSO was maintained 5.5%.

IC50 (α-Chymotrypsin [1]) [µM]	Type of inhibition (α-Chymotrypsin [3])	Ki (α-Chymotrypsin [3]) [µM]	SMILES	GI50 at 72 h [2] [µM]	growth inhibition for 3T3 cell lines (in words) (3T3 cell line)
42.4 ± 0.3	Mixed	31.8 ± 3.4	S=C(Nc1cccc(Cl)c1)Nc1ccc(Cl)cc1Cl [Compound 8, 1-(3-Chlorophenyl)-3-(2,4-dichlorophenyl) thiourea]	21.4 ± 0.1	showed growth inhibition
46.2 ± 0.5	Non- Competitive	39.6 ± 1	Cc1ccc(NC(=S)Nc2cccc(Cl)c2)cc1 [Compound 9, 1-(3-Chlorophenyl)-3-p-tolylthiourea]	2.3 ± 0.4	showed growth inhibition
